Literature values in patent US20100081719A1 (priority 2006, published 2010).

What was measured:
[1] = tested on: subjects suffering from fibromyalgia syndrome; conditions: cited from earlier work; for Subjects with significant clinical improvement: after one month; for Difference from placebo: at three months
[2] = tested on: patients with FMS; conditions: open-label; 11 completing patients; cited from earlier work

Compound	Subjects with significant clinical improvement [1] [%]	Difference from placebo [1]	Completing patients with a positive response (50% or greater improvement in two different measurements of overall pain) [2]	Completing patients with insomnia requiring adjunctive medical therapy [2]
CN(C)CCC=C1c2ccccc2CCc2ccccc21 [amitriptyline]	21	no difference		
CN(C)CCC=C1c2ccccc2C=Cc2ccccc21 [cyclobenzaprine]	12	no difference		
COc1ccc(C(CN(C)C)C2(O)CCCCC2)cc1 (stereo not drawn) [venlafaxine]			Six of 11	3 of 11
